The values that follow come from ChEMBL document CHEMBL1145647, “Phenylcyclobutyl triazoles as selective inhibitors of 11beta-hydroxysteroid dehydrogenase type I” (Bioorg Med Chem Lett, 2008).

Data set [1] has as its target T1, 11-beta-hydroxysteroid dehydrogenase type 2 (Homo sapiens, UniProt P80365).
T1 sequence (P80365 whole entry): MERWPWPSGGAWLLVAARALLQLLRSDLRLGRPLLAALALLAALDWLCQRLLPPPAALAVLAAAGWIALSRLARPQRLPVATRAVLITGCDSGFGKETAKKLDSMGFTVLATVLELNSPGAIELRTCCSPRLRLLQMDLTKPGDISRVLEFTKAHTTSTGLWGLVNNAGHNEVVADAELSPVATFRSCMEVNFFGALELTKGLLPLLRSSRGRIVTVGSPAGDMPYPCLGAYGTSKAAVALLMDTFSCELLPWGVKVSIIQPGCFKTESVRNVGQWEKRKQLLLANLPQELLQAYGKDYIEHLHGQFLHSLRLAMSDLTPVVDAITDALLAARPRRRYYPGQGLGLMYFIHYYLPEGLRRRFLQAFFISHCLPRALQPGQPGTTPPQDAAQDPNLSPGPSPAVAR
Kind of data set: Inhibition of human 11-beta-HSD2 by SPA assay.

Data set [2] has as its target 11-beta-hydroxysteroid dehydrogenase 1 (Homo sapiens, UniProt P28845). Kind of data set: Inhibition of human 11-beta-HSD1 by SPA assay.
The target of data set [3] is T2, 11-beta-hydroxysteroid dehydrogenase type 2 (Mus musculus, UniProt P51661).
T2 sequence (P51661 whole entry): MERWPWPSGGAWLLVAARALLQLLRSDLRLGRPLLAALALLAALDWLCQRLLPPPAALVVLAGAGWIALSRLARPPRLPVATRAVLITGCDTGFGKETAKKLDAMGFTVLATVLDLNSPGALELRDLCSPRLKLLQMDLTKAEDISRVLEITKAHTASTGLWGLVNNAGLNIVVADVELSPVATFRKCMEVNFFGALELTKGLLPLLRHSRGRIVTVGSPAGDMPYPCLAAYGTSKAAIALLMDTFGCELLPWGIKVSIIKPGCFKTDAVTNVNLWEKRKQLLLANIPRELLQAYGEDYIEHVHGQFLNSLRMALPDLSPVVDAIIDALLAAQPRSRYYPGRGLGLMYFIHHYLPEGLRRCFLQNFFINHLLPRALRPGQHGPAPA
Nature of the data set: Inhibition of mouse 11-beta-HSD2 by SPA assay.

For data set [4], the target named is 11-beta-hydroxysteroid dehydrogenase 1 (Mus musculus, UniProt P50172). Nature of the data set: Inhibition of mouse 11-beta-HSD1 by SPA assay.
Data set [5] deals with Mus musculus. Kind of data set: Inhibition of 11-beta-HSD1 in mouse pharmacodynamic model assessed as inhibition of [3H]cortisone to [3H]cortisol at 10 mg/kg, po after 1 hr. It counts as functional.
In data set [6] the test system is Mus musculus. Nature of the data set: Inhibition of 11-beta-HSD1 in mouse pharmacodynamic model assessed as inhibition of [3H]cortisone to [3H]cortisol at 10 mg/kg, po after 4 hrs. It counts as functional.
The nature of data set [7]: Half life in C57B6 mouse at 10 mg/kg. Type of data set: ADME, organism-based. The arrangement: dose 10 mg/kg. Particulars: in vivo.
A short description of data set [8]: Plasma concentration in C57B6 mouse at 10 mg/kg. Also on record: dose 10 mg/kg. It counts as ADME, organism-based.
Data set [9] in a line: Oral bioavailability in C57B6 mouse at 10 mg/kg. Type of data set: ADME, organism-based. Conditions: in vivo.

11-beta-hydroxysteroid dehydrogenase 1 (Mus musculus, UniProt P50172), sequence (P50172 whole entry): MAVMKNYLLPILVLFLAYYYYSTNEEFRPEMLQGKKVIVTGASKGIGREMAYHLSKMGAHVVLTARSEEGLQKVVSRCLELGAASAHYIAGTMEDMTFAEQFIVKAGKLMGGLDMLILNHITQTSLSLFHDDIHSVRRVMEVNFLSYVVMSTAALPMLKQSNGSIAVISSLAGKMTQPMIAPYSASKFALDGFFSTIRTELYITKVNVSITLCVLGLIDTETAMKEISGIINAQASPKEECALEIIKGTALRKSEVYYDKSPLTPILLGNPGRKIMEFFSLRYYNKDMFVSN
11-beta-hydroxysteroid dehydrogenase 1 (Homo sapiens, UniProt P28845), sequence (P28845 whole entry): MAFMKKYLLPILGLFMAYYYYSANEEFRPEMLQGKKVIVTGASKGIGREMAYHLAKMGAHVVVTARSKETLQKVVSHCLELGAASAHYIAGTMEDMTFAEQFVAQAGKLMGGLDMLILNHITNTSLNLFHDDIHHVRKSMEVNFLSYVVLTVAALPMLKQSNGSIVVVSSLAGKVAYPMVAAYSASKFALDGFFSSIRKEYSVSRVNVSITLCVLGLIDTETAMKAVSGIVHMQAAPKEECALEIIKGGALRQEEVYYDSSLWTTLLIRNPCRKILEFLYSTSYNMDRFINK

For the compound `F[C@H]1C[C@@](c2ccc(Cl)cc2)(c2nnc(C3CC3)n2C2CC2)C1`, the IC50 (usually the concentration at which inhibition is half-maximal) in data set [1] was over 4000 nM; in [2] it was 22 nM; in [3], over 4000 nM; in data set [4] it was 38 nM.

For the compound `FC1(F)CC(c2ccc(Cl)cc2)(c2nnc(C3CC3)n2C2CC2)C1`, the IC50 was over 4000 nM in data set [1], 35 nM in data set [2], over 4000 nM in data set [3] and 107 nM in [4].

Turning to `Fc1cccc(C2(c3nnc4n3CCCCCC4)CCC2)c1`, the IC50 was 4000 nM in data set [1], 2 nM in data set [2], over 4000 nM in data set [3] and 19 nM in [4]. Also, the inhibition in vivo (commonly the change of the read-out against control, counted positive when it falls) at 10 mg/kg in the data set with Mus musculus [5] is 87%; in the data set on Mus musculus [6] it was 68%.

With `C1C2CC3CC1CC(c1nnc(C4CC4)n1C1CC1)(C2)C3`, in the data set on Mus musculus [6], the inhibition in vivo at 10 mg/kg was found to be 74%.

On to `Cc1cccc(C2(c3nnc4n3CCCCCC4)CCCC2)c1`, for which the IC50 in data set [1] was 1960 nM; in data set [2], 10 nM; in [3] it was over 4000 nM; in data set [4], 57 nM. The inhibition in vivo at 10 mg/kg came to 20% in the data set with Mus musculus [5] and 22% in the data set on Mus musculus [6].

`Clc1ccc(C2(c3nnc4n3CCCCCC4)CCCC2)cc1`: the IC50 is 2 nM in data set [2] and 41 nM in data set [4].

On to `Cc1ccc(C2(c3nnc4n3CCCCCC4)CCCCC2)cc1`, for which the IC50 is 15 nM in data set [2], over 4000 nM in [3] and 374 nM in data set [4].

For the compound `Fc1ccccc1C1(c2nnc3n2CCCCCC3)CCCC1`, the IC50 in data set [1] is 1270 nM; in data set [2] it was 1 nM; in [3], over 4000 nM; in data set [4] it was 27 nM. The inhibition in vivo at 10 mg/kg was 57% in the data set with Mus musculus [5] and 18% with Mus musculus [6].

For the compound `Clc1ccc(C2(c3nnc4n3CCCCCC4)CCCCC2)cc1`, the values for the IC50 in [2], in data set [3] and in data set [4] were 32 nM, over 4000 nM and 454 nM, respectively.

In the case of `Fc1ccc(C2(c3nnc4n3CCCCCC4)CCC2)cc1`, the IC50 in data set [1] was over 4000 nM; in data set [2], 3 nM; in data set [3], over 4000 nM; in data set [4], 37 nM. Moreover, the inhibition in vivo at 10 mg/kg came out at 68% with Mus musculus [5] and 55% in the data set with Mus musculus [6].

`Cc1ccc(C2(c3nnc4n3CCCCCC4)CCCC2)cc1`: the inhibition in vivo at 10 mg/kg turned out to be 35% with Mus musculus [5] and 3% with Mus musculus [6]. Besides, the results for the IC50 in data set [2], in data set [3] and in data set [4] were 2 nM, over 4000 nM and 25 nM, respectively.

In the case of `c1ccc(C2(c3nnc4n3CCCCCC4)CCCCC2)cc1`, the IC50 in data set [1] was 1040 nM; in [2], 13 nM; in [3], over 4000 nM; in [4], 100 nM. The inhibition in vivo at 10 mg/kg with Mus musculus [5] was found to be 25%; with Mus musculus [6] it was 0%.

For `Fc1ccccc1C1(c2nnc3n2CCCCCC3)CCC1`, the IC50 in data set [1] is under 4000 nM; in data set [2] it was 1 nM; in [3], over 4000 nM; in data set [4], 16 nM. Also, the inhibition in vivo at 10 mg/kg in the data set on Mus musculus [5] is 90%; in the data set on Mus musculus [6], 53%.

Consider `C1CCc2nnc(C34CC5CC(CC(C5)C3)C4)n2CC1`, for which the IC50 in [1] was over 3000 nM; in data set [2] it was 7.8 nM; in data set [3] it was over 10000 nM; in data set [4], 98 nM. In addition, the inhibition in vivo at 10 mg/kg in the data set with Mus musculus [5] was 59%; in the data set with Mus musculus [6] it was 17%.

Take `C1CCCn2c(nnc2C23CC4CC(CC(C4)C2)C3)CC1`: the inhibition in vivo at 10 mg/kg with Mus musculus [6] came out at 24%.

Take `Cc1cccc(C2(c3nnc4n3CCCCCC4)CCC2)c1`: the 50% inhibitory concentration (IC50) in [1] is over 4000 nM; in [2], 2 nM; in data set [3] it was over 4000 nM; in [4], 52 nM. For the same compound, the inhibition in vivo at 10 mg/kg was determined as 17% in the data set on Mus musculus [5] and 22% in the data set on Mus musculus [6].

Regarding `Clc1ccc(C2(c3nnc4n3CCCCCC4)CCC2)cc1`, the inhibition in vivo at 10 mg/kg was 91% in the data set with Mus musculus [5] and 77% with Mus musculus [6]. Moreover, the IC50 is 1 nM in data set [2] and 14 nM in data set [4].

Consider `Oc1cccc(C2(c3nnc4n3CCCCCC4)CCCC2)c1`, for which the IC50 in [1] is over 4000 nM; in [2], 43 nM; in [3] it was over 4000 nM; in data set [4], 61 nM. Moreover, the figures for the inhibition in vivo at 10 mg/kg with Mus musculus [5] and in the data set with Mus musculus [6] were 3% and 21%, respectively.

As to `Clc1ccc(C2(c3nnc4n3CCCCCC4)CC2)cc1`, the IC50 was over 4000 nM in data set [1], 2 nM in data set [2], over 4000 nM in [3] and 230 nM in [4].

As for `Cc1ccc(C2(c3nnc4n3CCCCCC4)CC2)cc1`, the concentration for half-maximal inhibition (IC50) is over 4000 nM in data set [1], 1 nM in data set [2], over 4000 nM in data set [3] and 332 nM in data set [4].

Take `FC(F)(F)c1ccccc1C1(c2nnc3n2CCCCCC3)CCC1`: the IC50 in [1] was over 4000 nM; in data set [2], 5 nM; in [3], over 4000 nM; in data set [4], 355 nM.

`c1ccc(C2(c3nnc4n3CCCCCC4)CCCC2)cc1`: the IC50 in data set [1] was 1040 nM; in data set [2], 2 nM; in data set [3], over 4000 nM; in data set [4], 12 nM. Moreover, the figures for the inhibition in vivo at 10 mg/kg with Mus musculus [5] and in the data set on Mus musculus [6] were 73% and 37%, respectively.

For `Fc1ccc(C2(c3nnc4n3CCCCCC4)CCCCC2)cc1`, the IC50 is 1170 nM in data set [1], 27 nM in data set [2], over 4000 nM in data set [3] and 494 nM in data set [4].

Consider `c1ccc(C2(c3nnc4n3CCCCCC4)CCC2)cc1`, for which the IC50 was 4000 nM in [1], 1 nM in data set [2], over 4000 nM in [3] and 8 nM in data set [4]. Moreover, the inhibition in vivo at 10 mg/kg in the data set on Mus musculus [5] was 88%; in the data set with Mus musculus [6], 72%.

With `Fc1ccc(C2(c3nnc4n3CCCCCC4)CCCC2)cc1`, the IC50 in data set [1] was over 4000 nM; in [2] it was 8 nM; in data set [3], over 4000 nM; in data set [4], 18 nM. The inhibition in vivo at 10 mg/kg in the data set with Mus musculus [5] was found to be 58%; in the data set on Mus musculus [6], 30%.

Consider `c1ccc(C2(c3nnc4n3CCCCCC4)CC2)cc1`, for which the IC50 in [1] is over 4000 nM; in data set [2], 8 nM; in [3], over 4000 nM; in [4] it was 172 nM. Besides, the inhibition in vivo at 10 mg/kg was 63% in the data set on Mus musculus [5] and 45% in the data set with Mus musculus [6].

With `FC(F)(F)c1ccc(C2(c3nnc4n3CCCCCC4)CCC2)cc1`, the IC50 in data set [1] was over 4000 nM; in [2], 2 nM; in data set [3] it was over 4000 nM; in [4], 115 nM.

For `Clc1ccc(C2(c3nnc4n3CCCCCC4)CC2)c(Cl)c1`, the IC50 was 1960 nM in data set [1], 2 nM in data set [2], over 4000 nM in data set [3] and 199 nM in data set [4].

Take `F[C@H]1C[C@](c2ccc(Cl)cc2)(c2nnc(C3CC3)n2C2CC2)C1`: the half-life (in general, how long it takes for the measured level to halve) in data set [7] is 1.5 h. For the same compound, the IC50 in [1] is over 4000 nM; in [2], 5 nM; in data set [3], over 4000 nM; in data set [4], 16 nM. Also, the inhibition in vivo at 10 mg/kg with Mus musculus [5] amounted to 92%; with Mus musculus [6] it was 91%. The clearance (in general, the rate of elimination divided by the concentration) in data set [8] was 10.7 mL/min/kg. Also, the bioavailability (as a rule, dose-corrected exposure relative to a reference, in per cent) in data set [9] came out at 100%.

`Cc1ccc(C2(c3nnc4n3CCCCCC4)CCC2)cc1`: the IC50 in [1] is 2010 nM; in data set [2] it was 2 nM; in data set [3] it was over 4000 nM; in data set [4], 19 nM. The inhibition in vivo at 10 mg/kg was found to be 48% with Mus musculus [5] and 28% with Mus musculus [6].

In the case of `Cc1ccccc1C1(c2nnc3n2CCCCCC3)CCC1`, the IC50 was 3320 nM in [1], 1 nM in data set [2], over 4000 nM in [3] and 78 nM in [4]. The results for the inhibition in vivo at 10 mg/kg in the data set on Mus musculus [5] and in the data set with Mus musculus [6] were 23% and 21%, respectively.
